The results in this text go back to EP0066918A1 (THE PROCTER & GAMBLE COMPANY, priority 1981, dated 1982).

Values joined by “and” are separate entries in the source; they are usually repeats but may differ in a detail not shown here. Equal entries are not always repeated.

Data set [1] deals with aspirin-induced gastric lesions. Put plainly: animal or person. The data set is classed as in vivo, Male Sprague-Dawley rats. The note with it: for inhibition in vivo at 125 mg/kg: Rattus norvegicus, po, 2 h, purine derivative dose 125 mg/kg with 125 mg/kg aspirin, read-out: % Reduction in Lesions; for minimization of gastric damage (statement in words): general statement in the description, high dosage = anti-inflammatory:purine ratios from about 1:1.5 to about 1:4; for reduction in lesions / lesion reduction: both 125 mg/kg. On the procedure: For these experiments, the test materials were suspended in 0.5% methyl cellulose aqueous solutions. The pH of the aspirin solution was 2.7 and the pH of the solutions containing the purine materials was adjusted to pH 2.7 using HC1.
Male Sprague-Dawley rats were obtained (approximate weight = 150 grams each) and allowed to acclimate for at least 4 days. During this period the animals were allowed Purina Rat Chow and,tap water ad libitum. The animals were food fasted about 18 hours prior to dosing; during this period water was provided ad libitum.
The rats were dosed by oral gavage using a #8 catheter attached to a 1 cc syringe. The animals were dosed and sacrificed according to a predetermined schedule (the dosing order was determined at random prior to starting each experiment). After dosing, the animals were also water fasted.
The rats were sacrificed, either by C02 inhalation or cervical dislocation, two hours after dosing. Their stomachs were removed intact and placed on plastic-backed absorbent paper. The stomachs were then opened along the greater curvature, the fundus and esophagus were removed and the stomach was spread over a piece of white cardboard, using cotton-tipped applicators to level the rugae. The stomachs were then examined, using a dissecting microscope at 7X magnification, and the length of each lesion present was determined using a calibrated reticule.
In this table, N indicates the number of rats tested for the stated dosage.
In other experiments aspirin and adenosine were dosed at separate times.

A short description of data set [2]: Toxicity (statement only, no method given). Conditions: no data given.
For data set [3], the system named is Aspirin-induced damage in dogs. Put plainly: Aspirin-induced gastric damage in dogs, endoscopy. The data set is classed as in vivo, male beagles. The note with it: avg. dose aspirin 97.8-101 mg/kg, adenosine 100 mg/kg simultaneously, cimetidine 30 mg/kg about 1 hour before. The protocol: Fasted male beagles were orally dosed with tablets of aspirin, aspirin plus adenosine, or aspirin plus cimetidine. The aspirin and adenosine were dosed simultaneously. The cimetidine was dosed approximately 1 hour before the aspirin; the dose level of cimetidine was 5 times that needed to give a 90% reduction in acid secretion. Approximately 19 hours later, the dogs were again dosed and 4 hours later their stomachs were examined by endoscopy. The incidence of erosions was recorded and the overall gastric damage assessed subjectively, using an arbitrary grading scale.

Data set [4] has as its system occult blood loss from the G.I. tract. Kind of data set: Occult blood loss from the G.I. tract of rats (Fe labeled ferrous citrate, 24 h feces collection). The data set is classed as in vivo, male Sprague-Dawley rats. The note with it: Adenosine 0, oral. On the procedure:
In addition to reducing macroscopic lesions in the stomach produced by aspirin ingestion, adenosine was also found to reduce occult blood loss from the G.I. tract of rats. In these experiments, male Sprague-Dawley rats were injected i.v. with […] Fe labeled ferrous citrate. Eight days after injection, feces were collected for 24 hours to establish base line data. The rats were then dosed orally with aspirin or aspirin-adenosine mixtures, as suspensions in 0.5% methylcellulose, and the feces were again collected for 24 hours. The rats were fasted during the 24-hour pre- dose period and for 2 hours after drug dosing.

Data set [5] deals with aspirin-induced gastric damage. Kind of data set: Aspirin-induced gastric lesions in rats, adenosine injected i.p. 15 minutes prior to oral aspirin. The data set is classed as in vivo. The note with it: 125 mg/kg aspirin (p.o.) alone. On the procedure:
Parenteral administration of adenosine was also found to be protective against aspirin-induced gastric damage, as illustrated by the following experiment.
Rats, chosen and prepared as. above, were dosed with i.p. injections of adenosine in 0.9% sterile physiological saline solution, adjusted to pH 7 with IN NaOH. The adenosine solution was injected 15 minutes prior to an oral dose of 125 mg/kg aspirin.

Take `OC[C@H]1O[C@@H](n2cnc3c2ncn2ccnc32)[C@H](O)[C@@H]1O` [1,N^6-ethenoadenosine]: in data set [1] (vs aspirin-alone control), the inhibition in vivo at 125 mg/kg was found to be 50%. In data set [1], the “minimization of gastric damage (statement in words)” value (“minimization of gastric damage” for short) is listed as “work only at relatively high dosage levels”.

Turning to `Nc1ncnc2nc[nH]c12` [Adenine], the “toxicity limits (statement in words)” value in data set [2] is “does not fall within the necessary toxicity limits”. Besides, the inhibition in vivo at 125 mg/kg in data set [1] (vs aspirin-alone control) came to 94%. For the same molecule, the “minimization of gastric damage” value in data set [1] is reported as “does work to minimize gastrointestinal damage”.

For `Nc1c2ncn([C@@H]3O[C@H](CO)[C@@H](O)[C@H]3O)c2nc[n+]1[O-]` [Adenosine-N^1-oxide, adenosine-N^1-oxide], the inhibition in vivo at 125 mg/kg in data set [1] (vs aspirin-alone control) stood at 75%.

For `Nc1ncnc2c1ncn2[C@@H]1O[C@H](CO)C[C@H]1O` [3'-deoxyadenosine], the inhibition in vivo at 125 mg/kg in data set [1] (vs aspirin-alone control) was -47%.

For `CC(=O)Oc1ccccc1C(=O)O` [Aspirin, acetylsalicylic acid], the “Avg. Damage Grade” value in data set [3] (arbitrary subjective grading scale) came out at 16. For the same molecule, the “Avg. In-cidence of Erosions” value in data set [3] (oral tablets, two doses about 19 h apart, endoscopy 4 h after second) was found to be 80%. The “Blood Loss in 24 hrs. (µl) + S.D.” value in data set [4] (Aspirin 125 mg/kg) is 158 ± 46 µL; in data set [4] (Aspirin 300 mg/kg) it was 198 ± 131 µL and 224 ± 98 µL. Also, the “Lesion Length (mm) ± SEM” value in data set [1] (125 mg/kg aspirin alone (control), oral, 2 h after dosing) worked out at 30.4 ±3.1 mm. In data set [5], the “Average Lesion Length (mm) ±SEM” value came out at 36.1 ±10.8 mm.

`OC[C@H]1O[C@@H](n2cnc3c(O)ncnc32)[C@H](O)[C@@H]1O` [Inosine]: the inhibition in vivo at 125 mg/kg in data set [1] (vs aspirin-alone control) amounted to 18%.

For `Cn1cnc2c(ncn2[C@@H]2O[C@H](CO)[C@@H](O)[C@H]2O)c1=N` [1-methyl adenosine], the “% Reduction in Lesions” value in data set [1] (purine derivative dose 25 mg/kg with 125 mg/kg aspirin, vs aspirin-alone control) is 16%.

For the molecule `Nc1ncnc2c1nc(Br)n2[C@@H]1O[C@H](CO)[C@@H](O)[C@H]1O` [8-bromoadenosine], the inhibition in vivo at 125 mg/kg in data set [1] (vs aspirin-alone control) turned out to be 76%.

As for `Nc1nc2c(ncn2[C@@H]2O[C@H](CO)[C@@H](O)[C@H]2O)c(=O)[nH]1` [Guanosine], the inhibition in vivo at 125 mg/kg in data set [1] (vs aspirin-alone control) was found to be 41%. Further, the “minimization of gastric damage” value in data set [1] was “not useful”.

Regarding `Nc1ncnc2c1ncn2[C@@H]1O[C@H](COP(=O)(O)OP(=O)(O)O)[C@@H](O)[C@H]1O` [Adenosine-5'-diphosphate (ADP), adenosine-5'-diphosphate], the inhibition in vivo at 125 mg/kg in data set [1] (vs aspirin-alone control) worked out at 50%. Further, the “minimization of gastric damage” value in data set [1] is listed as “work only at relatively high dosage levels”.

As to `Nc1ncnc2c1ncn2[C@H]1C[C@H](O)[C@@H](COP(=O)(O)O)O1` [2'-deoxy-adenosine-5'-mono-phosphate], in data set [1] (vs aspirin-alone control), the inhibition in vivo at 125 mg/kg worked out at 16%.

As to `CC1(C)O[C@@H]2[C@H](O1)[C@@H](CO)O[C@H]2n1cnc2c(N)ncnc21` [2',3'-isopropylidine adenosine], the inhibition in vivo at 125 mg/kg in data set [1] (vs aspirin-alone control) worked out at 95%.

On to `Nc1ncnc2c1nnn2[C@@H]1O[C@H](CO)[C@@H](O)[C@H]1O` [8-azaadenosine], for which the inhibition in vivo at 125 mg/kg in data set [1] (vs aspirin-alone control) came to 60%.

Take `NC(=O)NC1NC(=O)NC1=O` (stereo not drawn) [Allantoin]: the inhibition in vivo at 125 mg/kg in data set [1] (vs aspirin-alone control) came out at 30%.

As for `O=c1[nH]cnc2nc[nH]c12` [Hypoxanthine], in data set [1] (vs aspirin-alone control), the inhibition in vivo at 125 mg/kg is 13%.

Regarding `Nc1ncnc2c1ncn2[C@@H]1O[C@H](CO)[C@@H](O)[C@H]1O` [adenosine], the reduction in lesions was below 10% in data set [1] (adenosine dosed 10 minutes after aspirin) and “about 90%” in data set [1] (adenosine dosed simultaneously with aspirin). Also, the lesion reduction result in data set [1] (adenosine dosed 10 minutes prior to aspirin) is “about 60%”; in data set [1] (adenosine dosed 30 minutes prior to aspirin) it was “about 45%”.

Consider `CSC[C@H]1O[C@@H](n2cnc3c(N)ncnc32)[C@H](O)[C@@H]1O` [5'-deoxy-5'-methylthioadenosine], for which the inhibition in vivo at 125 mg/kg in data set [1] (vs aspirin-alone control) was -102%.

Consider `Nc1ncnc2c1ncn2[C@@H]1O[C@H](COP(=O)(O)OP(=O)(O)OP(=O)(O)O)[C@@H](O)[C@H]1O` [Adenosine-5'-triphosphonate (ATP), adenosine-5'-triphosphate], for which the “minimization of gastric damage” value in data set [1] is reported as “work only at relatively high dosage levels”.

Consider `Nc1nc2nc[nH]c2c(=O)[nH]1` [guanine], for which, in data set [1], the “minimization of gastric damage” value is reported as “not useful”.

As for `Nc1ncnc2c1ncn2[C@H]1C[C@H](O)[C@@H](CO)O1` [2'-deoxyadenosine], in data set [1] (vs aspirin-alone control), the inhibition in vivo at 125 mg/kg is 64%.
